Test results reported in the NIST ThermoML archive (doi:10.1016/j.jct.2015.08.031).

Test: molar heat capacity at constant pressure
Conditions: 101.33 kPa, Crystal, relaxation calorimetry

[Cu] [copper]
Conditions | molar heat capacity at constant pressure [J/K/mol]
1.93 K | 0.001713
2.15 K | 0.002021
2.39 K | 0.002319
2.65 K | 0.002809
2.95 K | 0.003326
3.28 K | 0.003967
3.64 K | 0.004911
4.04 K | 0.005973
4.48 K | 0.007493
4.97 K | 0.009444
5.51 K | 0.01204
6.11 K | 0.01543
6.78 K | 0.0199
7.52 K | 0.02598
8.33 K | 0.03421
9.24 K | 0.04517
10.25 K | 0.06013
11.34 K | 0.08043
12.58 K | 0.1091
13.96 K | 0.149
15.48 K | 0.2052
17.18 K | 0.2844
19.06 K | 0.3981
21.16 K | 0.5588
23.49 K | 0.7857
26.06 K | 1.094
28.95 K | 1.514
32.07 K | 2.062
35.61 K | 2.768
39.52 K | 3.635
43.85 K | 4.662
48.66 K | 5.846
54.01 K | 7.178
59.94 K | 8.631
66.51 K | 10.16
73.83 K | 11.68
81.93 K | 13.27
90.94 K | 14.71
100.89 K | 16.04
111.02 K | 17.3
121.12 K | 18.35
131.2 K | 19.24
141.26 K | 19.93
151.41 K | 20.52
161.51 K | 21.05
171.6 K | 21.5
181.69 K | 21.94
191.78 K | 22.25
201.87 K | 22.55
212 K | 22.82
222.11 K | 23.11
232.19 K | 23.37
242.21 K | 23.57
252.34 K | 23.79
262.41 K | 23.94
272.42 K | 24.1
282.6 K | 24.3
292.63 K | 24.41
297.94 K | 24.49
302.69 K | 24.51
302.72 K | 24.54
307.82 K | 24.55
312.89 K | 24.59
317.83 K | 24.7
322.91 K | 24.68
328.03 K | 24.79
333.05 K | 24.87
338.06 K | 24.81
343.13 K | 24.9
348.29 K | 25.01
353.34 K | 25.13
358.42 K | 25.09
363.5 K | 25.13
368.53 K | 25.23
373.56 K | 25.3
378.59 K | 25.4
383.61 K | 25.45
388.61 K | 25.48
393.64 K | 25.58
398.65 K | 25.68

O=C(O)c1ccccc1 [benzoic acid]
Conditions | molar heat capacity at constant pressure [J/K/mol]
1.93 K | 0.01333
2.15 K | 0.01845
2.39 K | 0.0255
2.66 K | 0.03397
2.96 K | 0.04707
3.29 K | 0.06572
3.65 K | 0.08963
4.05 K | 0.1233
4.49 K | 0.1714
4.99 K | 0.2363
5.54 K | 0.3302
6.14 K | 0.4631
6.81 K | 0.6487
7.56 K | 0.9052
8.38 K | 1.253
9.29 K | 1.714
10.26 K | 2.266
11.36 K | 3.021
12.61 K | 3.971
13.99 K | 5.144
15.52 K | 6.537
17.23 K | 8.219
19.12 K | 10.17
21.21 K | 12.39
23.54 K | 14.97
26.1 K | 17.79
28.96 K | 20.88
32.16 K | 24.14
35.67 K | 27.61
39.58 K | 31.21
43.9 K | 34.8
48.73 K | 38.39
54.07 K | 42.02
60 K | 45.71
66.57 K | 49.33
73.89 K | 52.81
82 K | 56.69
91.01 K | 60.28
100.97 K | 63.46
111.11 K | 67.66
121.2 K | 71.28
131.23 K | 75.08
141.33 K | 78.93
151.47 K | 82.66
161.56 K | 86.28
171.65 K | 90.21
181.75 K | 94.38
191.83 K | 98.14
201.92 K | 101.91
212.02 K | 106.35
222.12 K | 110.99
232.21 K | 115.4
242.21 K | 119.97
252.4 K | 124.67
262.46 K | 128.8
272.51 K | 133.51
282.55 K | 138.2
292.7 K | 141.62
302.71 K | 144.34

[Al+3].[Al+3].[O-2].[O-2].[O-2] [aluminum oxide (Al2O3)]
Conditions | molar heat capacity at constant pressure [J/K/mol]
1.93 K | 7.666e-05
2.15 K | 9.655e-05
2.39 K | 0.0001341
2.65 K | 0.0001785
2.95 K | 0.0002464
3.28 K | 0.0003342
3.64 K | 0.0004613
4.04 K | 0.0006149
4.49 K | 0.0008379
4.98 K | 0.001136
5.523 K | 0.001541
6.13 K | 0.00216
6.8 K | 0.002926
7.54 K | 0.004006
8.36 K | 0.005388
9.27 K | 0.007325
10.28 K | 0.009979
11.37 K | 0.0134
12.61 K | 0.01843
13.99 K | 0.02532
15.52 K | 0.03431
17.22 K | 0.04685
19.12 K | 0.06451
21.23 K | 0.08864
23.58 K | 0.1229
26.17 K | 0.1719
29.08 K | 0.2396
32.22 K | 0.3344
35.73 K | 0.4743
39.62 K | 0.6761
43.94 K | 0.9644
48.73 K | 1.379
54.06 K | 1.968
59.98 K | 2.789
66.54 K | 3.91
73.85 K | 5.425
81.95 K | 7.444
90.93 K | 9.991
100.91 K | 13.15
111.18 K | 16.79
121.13 K | 20.54
131.17 K | 24.48
141.28 K | 28.54
151.4 K | 32.54
161.47 K | 36.62
171.56 K | 40.51
181.6 K | 44.37
191.67 K | 48.13
201.78 K | 51.63
211.87 K | 55.13
221.94 K | 58.53
232 K | 61.73
241.98 K | 64.63
252.05 K | 67.6
262.17 K | 70.28
272.22 K | 72.77
282.18 K | 75.28
292.31 K | 77.45
297.27 K | 78.3
302.27 K | 79.34
302.29 K | 79.63
307.31 K | 80.41
312.34 K | 81.4
317.3 K | 82.41
322.32 K | 83.31
327.42 K | 84.26
332.46 K | 85.09
337.41 K | 85.84
342.44 K | 86.73
347.58 K | 87.72
352.67 K | 88.65
357.7 K | 89.47
362.73 K | 90.24
367.75 K | 90.97
372.77 K | 91.84
377.77 K | 92.8
382.79 K | 93.27
387.76 K | 94.14
392.76 K | 95.04
397.77 K | 95.81
